In one assay the target is Coagulation factor XI (Homo sapiens, UniProt P03951). The assay is described as follows: Inhibition of f11a.
Another assay addresses Coagulation factor X (Homo sapiens, UniProt P00742). The assay is described as follows: Inhibition of f10a.
In a further assay the target is Prothrombin (Homo sapiens, UniProt P00734). The experiment in a line: Inhibition of thrombin.
In a further assay the target is Trypsin (Homo sapiens, UniProt P07477+P07478+P35030). The assay is described as follows: Inhibition of trypsin. The format is protein assay.
The species named for assay [1] is Homo sapiens. The experiment in a line: Selectivity for f11a over f10a.
For assay [2], the species on record is Homo sapiens. The assay is described as follows: Selectivity for f11a over trypsin.

Each structure is given as a SMILES string. Structures can show the parent of a compound that is named as a salt.

For orientation: IC50 means the concentration that gives 50% inhibition. Low values mean higher potency, high ones lower potency.

Sequence of Coagulation factor XI (P03951 19-387 limits assumed): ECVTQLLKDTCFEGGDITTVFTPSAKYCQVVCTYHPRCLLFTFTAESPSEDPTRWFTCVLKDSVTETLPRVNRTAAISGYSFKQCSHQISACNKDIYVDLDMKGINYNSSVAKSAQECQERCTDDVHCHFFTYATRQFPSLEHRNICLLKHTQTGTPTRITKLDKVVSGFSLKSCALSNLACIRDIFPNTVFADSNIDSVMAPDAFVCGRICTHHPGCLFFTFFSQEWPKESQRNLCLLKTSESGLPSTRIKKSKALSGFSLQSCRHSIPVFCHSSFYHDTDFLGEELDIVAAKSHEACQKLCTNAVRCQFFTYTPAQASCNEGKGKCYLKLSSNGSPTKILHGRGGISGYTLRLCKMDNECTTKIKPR
Sequence of Coagulation factor XI (P03951 388-625 limits assumed): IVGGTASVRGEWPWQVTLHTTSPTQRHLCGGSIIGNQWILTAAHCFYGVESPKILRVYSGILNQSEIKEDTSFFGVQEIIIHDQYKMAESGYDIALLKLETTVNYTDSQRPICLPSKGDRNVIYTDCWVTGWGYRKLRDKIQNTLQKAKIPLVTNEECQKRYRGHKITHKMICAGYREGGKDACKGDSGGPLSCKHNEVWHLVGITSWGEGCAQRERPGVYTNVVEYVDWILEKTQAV
Sequence of Coagulation factor X (P00742 41-179 limits assumed): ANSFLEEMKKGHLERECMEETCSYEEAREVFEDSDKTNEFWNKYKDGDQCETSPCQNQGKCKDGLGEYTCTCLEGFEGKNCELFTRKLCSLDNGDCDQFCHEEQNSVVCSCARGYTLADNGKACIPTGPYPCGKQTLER
Sequence of Coagulation factor X (P00742 235-488 limits assumed): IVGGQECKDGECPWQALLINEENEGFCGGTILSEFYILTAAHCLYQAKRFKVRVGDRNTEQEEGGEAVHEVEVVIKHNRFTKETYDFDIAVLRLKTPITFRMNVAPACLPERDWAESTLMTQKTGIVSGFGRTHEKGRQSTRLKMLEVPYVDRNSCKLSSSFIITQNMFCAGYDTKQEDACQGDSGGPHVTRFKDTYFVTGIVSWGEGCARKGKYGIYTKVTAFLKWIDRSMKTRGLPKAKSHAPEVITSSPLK

On to `CC1(C)OB(c2ccc(CCN=C(N)N)cc2)OC1(C)C.O=C(O)C(F)(F)F`, for which the half-inhibitory concentration (IC50) stood at 7.3 µM at Coagulation factor XI, 175 µM against Coagulation factor X, 30.8 µM at Prothrombin and 20.3 µM on Trypsin. In addition, the Selectivity ratio in the assay filed under Homo sapiens [1] was 25; in the assay listed under Homo sapiens [2], 3.

On to `NCc1ccc(B(O)O)cc1`, for which, on Coagulation factor XI, inhibition was half-maximal at 77.3 µM (IC50).

Compound `N=C(N)c1ccccc1` [BENZAMIDINE HYDROCHLORIDE] had a half-inhibitory concentration (IC50) on Coagulation factor XI of 120 µM.

For the compound `CC1(C)OB(c2ccc(CN=C(N)N)cc2)OC1(C)C`, the IC50 against Coagulation factor XI is 24.7 µM; against Coagulation factor X it was greater than 200 µM; against Prothrombin, 129 µM; against Trypsin, greater than 200 µM. Besides, the Selectivity ratio in the assay listed under Homo sapiens [1] and in the assay listed under Homo sapiens [2] was 10 throughout.

Turning to `CC1(C)OB(c2ccc(NC(=N)N)cc2)OC1(C)C.O=C(O)C(F)(F)F`, the IC50 on Coagulation factor XI was 5.9 µM; at Coagulation factor X, 129 µM; on Prothrombin it was 5.5 µM; at Trypsin, 2.3 µM.

Turning to `N=C(N)NCc1ccc(B(O)O)cc1.O=C(O)C(F)(F)F`, the IC50 against Coagulation factor XI is 22 µM; against Coagulation factor X, greater than 200 µM; against Prothrombin, 146 µM; against Trypsin, greater than 200 µM. The Selectivity ratio in the assay listed under Homo sapiens [1] and in the assay listed under Homo sapiens [2] was 10 each time.

For the compound `CC1(C)OB(c2ccc(C(NC(=N)N)OC(=O)c3cccnc3)cc2)OC1(C)C.O=C(O)C(F)(F)F` (stereo not given), the 50% inhibitory concentration (IC50) is 1.4 µM at Coagulation factor XI, 43.6 µM on Coagulation factor X, 12.3 µM against Prothrombin and greater than 200 µM on Trypsin. The values for the Selectivity ratio in the assay listed under Homo sapiens [1] and in the assay listed under Homo sapiens [2] were 30 and 200, respectively.

These data come from ChEMBL document CHEMBL1149506, “Synthesis and in vitro biological evaluation of aryl boronic acids as potential inhibitors of factor XIa” (Bioorg Med Chem Lett, 2006).
